In one experiment the target is T1, Mammalian Thymidylate Synthase (Homo sapiens, UniProt P04818).
T1 construct: made in house; host or cells: Escherichia coli
T1 sequence (P04818 whole entry): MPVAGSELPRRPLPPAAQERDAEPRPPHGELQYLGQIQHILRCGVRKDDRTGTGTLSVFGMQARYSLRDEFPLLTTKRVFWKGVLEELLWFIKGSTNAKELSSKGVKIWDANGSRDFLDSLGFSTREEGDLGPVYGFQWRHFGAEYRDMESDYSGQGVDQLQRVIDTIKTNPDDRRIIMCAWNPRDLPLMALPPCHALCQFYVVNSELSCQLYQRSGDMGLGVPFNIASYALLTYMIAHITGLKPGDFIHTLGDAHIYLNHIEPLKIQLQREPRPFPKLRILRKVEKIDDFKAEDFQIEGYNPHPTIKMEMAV
The experiment can be described thus: Thymidylate synthase inhibition, tritium release assay. Format: biochemical.
Settings: not given
`Cc1nc2c(c(=O)[nH]1)-c1cc(S(=O)(=O)Cl)ccc1CC2` [1,2,5,6-Tetrahydro-3-methyl-1-oxobenzo(f)quinazoline-9-sulfonylchloride] returned an IC50 of 1 to 300 µM.
In the case of `Nc1nc(O)c2c(ccc3cc(N)c(Br)cc32)n1` [3,8-Diamino-9-bromobenzo(f)quinazolin-1(2H)-one], the IC50 was under 1 µM.
The same measure, in the same setting: next, `Nc1nc2c(c(=O)[nH]1)-c1ccc(S(N)(=O)=O)cc1CC2` [3-Amino-1,2,5,6-tetrahydro-1-oxobenzo(f)quinazoline-8-sulfonamide]: 1 to 300 µM; `Nc1nc(O)c2c(n1)CCc1cc([N+](=O)[O-])ccc1-2` [3-Amino-5,6-dihydro-8-nitro(f)quinazolin-1(2H)-one]: 1 to 300 µM.
On the same count and under the same terms, the same measure for `Nc1nc2ccc3cc(Cl)c(Cl)cc3c2c(=O)[nH]1` [3-Amino-8,9-dichlorobenzo(f)quinazolin-1(2H)-one]: under 1 µM.

The same experiment, now with this note: Table A; vs. mammalian enzymes; read-out: I50.
In the case of `Nc1nc(O)c2c(ccc3c(N)cccc32)n1` [3,7-Diaminobenzo(f)quinazolin-1(2H)-one], the IC50 lay in the range of 1 to 300 µM.
In the case of `Nc1cc(N)c2c(ccc3nc(N)[nH]c(=O)c32)c1` [3,8,10-Triaminobenzo(f)quinazolin-1(2H)-one], the IC50 was in the range of 1 to 300 µM.
On the same count and under the same terms, the same measure for `Nc1ccc2c(c1)CCc1nc(N)[nH]c(=O)c1-2` [3,8-Diamino-5,6-dihydrobenzo(f)quinazolin-1(2H)-one]: 1 to 300 µM; for `Nc1nc2ccc3c(Br)c(N)c(Br)cc3c2c(=O)[nH]1` [3,8-Diamino-7,9-dibromobenzo(f)quinazolin-1(2H)-one]: 1 to 300 µM.
The same measure, in the same setting: the same measure for `Nc1ccc2c(c1)-c1c(nc(N)[nH]c1=O)CC2` [3,9-Diamino-5,6-dihydrobenzo(f)quinazolin-1(2H)-one]: 1 to 300 µM; for `Nc1nc(O)c2c(ccc3cccc(N)c32)n1` [3,10-diaminobenzo(f)quinazolin-1(2H)-one]: 1 to 300 µM; for `CC1(C)Cc2nc(N)nc(O)c2-c2ccccc21` [3-Amino-5,6-dihydro-6,6-dimethylbenzo(f)quinazolin-1(2H)-one]: 1 to 300 µM.
Same read-out and setting: next, `CC1Cc2nc(N)nc(O)c2-c2ccccc21` (centres unmarked) [3-Amino-5,6-dihydro-6-methylbenzo(f)quinazolin-1(2H)-one]: 1 to 300 µM; `Cc1cc(C)c2c(c1)-c1c(nc(N)[nH]c1=O)CC2` [3-Amino-5,6-dihydro-7,9-dimethylbenzo(f)quinazolin-1(2H)-one]: 1 to 300 µM.
On to `Nc1nc(O)c2c(n1)CCc1c(I)cccc1-2` [3-Amino-5,6-dihydro-7-iodobenzo(f)quinazolin-1(2H)-one], for which the IC50 is 1 to 300 µM.
On the same count and under the same terms, next, `Cc1cccc2c1CCc1nc(N)[nH]c(=O)c1-2` [3-Amino-5,6-dihydro-7-methylbenzo(f)quinazolin-1(2H)-one]: 1 to 300 µM; `Nc1nc2c(c(=O)[nH]1)-c1cc(O)ccc1CC2` [3-Amino-5,6-dihydro-9-hydroxybenzo(f)quinazolin-1(2H)-one]: 1 to 300 µM.
Take `Cc1ccc2c(c1)-c1c(O)nc(N)nc1CC2` [3-Amino-5,6-dihydro-9-methylbenzo(f)quinazolin-1(2H)-one]: the IC50 is under 1 µM.
On the same count and under the same terms, the same measure for `Nc1nc(O)c2c(cc(CO)c3ccccc32)n1` [3-Amino-6-(hydroxymethyl)benzo(f)quinazolin-1(2H)-one]: 1 to 300 µM.
Still for that read-out and setting: next, `Cc1cc2nc(N)[nH]c(=O)c2c2ccccc12` [3-Amino-6-methylbenzo(f)quinazolin-1(2H)-one]: 1 to 300 µM.
Take `Cc1cc(C)c2ccc3nc(N)[nH]c(=O)c3c2c1` [3-Amino-7,9-dimethylbenzo(f)quinazolin-1(2H)-one]: the IC50 was 1 to 300 µM.
On the same count and under the same terms, next, `Nc1nc2c(c(=O)[nH]1)-c1cccc(Br)c1CC2` [3-Amino-7-bromo-5,6-dihydrobenzo(f)quinazolin-1(2H)-one]: 1 to 300 µM; `Nc1nc2c(c(=O)[nH]1)-c1cccc(F)c1CC2` [3-Amino-7-fluoro-5,6-dihydrobenzo(f)quinazolin-1(2H)-one]: 1 to 300 µM.

Values taken from US6762188B1, “Pharmaceutically active benzoquinazoline compounds” (SmithKline Beecham Corporation, priority 1990, dated 2004).
